According to patent publication US12285399B2, “Composition comprising bornyl acetate or pharmaceutically acceptable salt thereof as active ingredient for prevention or treatment of stress-related disorder” (UNIVERSITY-INDUSTRY COOPERATION GROUP OF KYUNG HEE …, priority 2019, dated 2025):

Tests used:
Format in all cases: in vivo, C57BL/6NTac mice
iNOS mRNA = assay: RT-PCR of iNOS mRNA in brain (hippocampus and amygdala) of CRS model; settings: CRS+BA group, 100 mg/kg oral
Method: (§1) In order to confirm the antidepressant efficacy of bornyl acetate on the animal model of stress depression, an animal model of depression induced by chronic restrained stress (CRS) was prepared. Specifically, the animal model, 8-week-old male C57BL/6NTac mice after birth (Narabiotechnology, Korea; weight 22-24 g) had been stabilized for 1 week. A 50 ml conical tube (SPL Life sciences, Pocheon, Korea) was punched to make a hole, thereby making a restraint frame. The mice were put in the frame and restrained for 2 hours every day for 14 days. After restraint, the mice were allowed to freely ingest water and food in the home cage.
In order to confirm the inhibitory effect of bornyl acetate on the expression of inflammatory mediators in an animal model of depression induced by chronic restrained stress, mRNA expression was confirmed using reverse transcription-polymerase chain reaction (RT-PCR). Bornyl acetate (100 mg/kg) was orally administered 1 hour before inducing the restrained stress every day. […]
Western blot and RT-PCR analysis were performed in the brain (hippocampus and amygdala) of an animal model of chronic restrained stress (CRS)-induced stress depression to exam and quantify the activation level of inflammatory mediators, thereby verifying the modulating effect of bornyl acetate on the inflammatory response in the brain. […]

corticosterone = assay: Serum stress hormone (corticosterone) ELISA in CRS model; settings: CRS+BA group, 14 days
Method: as §1, with “cage. Bornyl acetate (25, 50 and 100 mg/kg) was orally administered 1 hour before inducing restrained stress every day. 14 days later, the mice were anesthetized, and the blood was collected. The blood was centrifuged at 5,000 rpm for 15 minutes to separate serum. In order to confirm the level of corticosterone, a stress hormone, in serum, an enzyme-linked immunosorbent assay (ELISA) kit (Enzo life sciences, Farmingdale, NY, USA) was used for analysis.” for “cage.”

c-Fos protein = assay: Western blot of c-Fos protein in brain (hippocampus and amygdala) of CRS model; settings: CRS+BA group
Method: In order to confirm the antidepressant efficacy of bornyl acetate on the animal model of stress depression, an animal model of depression induced by chronic restrained stress (CRS) was prepared. Specifically, the animal model, 8-week-old male C57BL/6NTac mice after birth (Narabiotechnology, Korea; weight 22-24 g) had been stabilized for 1 week. A 50 ml conical tube (SPL Life sciences, Pocheon, Korea) was punched to make a hole, thereby making a restraint frame. The mice were put in the frame and restrained for 2 hours every day for 14 days. After restraint, the mice were allowed to freely ingest water and food in the home cage. The hippocampus and amygdala of the brain were excised. They were added to 200 μl of a protein lysis buffer (10 mM Tris, 0.5 mM EDTA, 0.25 M sucrose), and proteins were isolated using a grinder. The isolated protein was quantified by the Bradford method (Bio-rad, USA) using bovine serum albumin (BSA, Sigma, USA), and then 25 μg of the protein was separated by 10% sodium dodecyl sulfate-polyacrylamide gel electrophoresis (SDS-PAGE) and transferred to polyvinylidene difluoride (PVDF) membrane (Gendepot, UK). PVDF membranes were blocked in 5% skimmed milk (BD, USA) for 1 hour. […] Identification and quantitative analysis of proteins were analyzed using an imaging device ChemiDoc XRS+ (Bio-Rad). […]

Q: With CC(=O)OC1CC2CCC1(C)C2(C)C (stereo not drawn) [BA, bornyl acetate] as the compound, how does the “mRNA expression of iNOS (CRS-induced increase)” value (iNOS mRNA; amygdala) read?
A: The value was “significantly inhibited”.

Q: What about the “mRNA expression of iNOS (CRS-induced increase)” value (iNOS mRNA; hippocampus) of the same compound?
A: The value was “significantly inhibited”.

Q: And the “level of stress hormone (corticosterone) in serum” value (corticosterone; 50 mg/kg oral)?
A: The value was 2869.8 pg/mL.

Q: And the “level of stress hormone (corticosterone) in serum” value (corticosterone; 100 mg/kg oral)?
A: Its value is 2202.5 pg/mL.

Q: And the “protein expression of c-Fos (CRS-induced increase)” value (c-Fos protein; amygdala)?
A: The value was “significantly inhibited”.

Q: What about the “protein expression of c-Fos (CRS-induced increase)” value (c-Fos protein; hippocampus) of the same compound?
A: The value was “significantly inhibited”.
